Publication PMC7948422, “Repurposing p97 inhibitors for chemical modulation of the bacterial ClpB–DnaK bichaperone system” (The Journal of Biological Chemistry, 2020)
Entries after “also recorded” stand apart in the source; their conditions may differ.

How the values were obtained:
wt ClpB = molecular target: T1, wt ClpB (Escherichia coli, UniProt P63284); experiment: Surface plasmon resonance, immobilized wt ClpB; assay type: binding; conditions: SPR, preliminary; read-out: dissociation constant, control titration of immobilized ClpB
T1 construct: made in house
Protocol: ClpB, DnaK, and the NBD of DnaK were extensively dialyzed against the SPR buffer (20-mM Hepes, pH 7.4, 150-mM NaCl, 20-mM MgCl2, 1-mM EDTA, 1-mM DTT). After dialysis, the protein concentration was determined by the Bradford method. The DBeQ–protein interactions were studied using a Biacore T200 instrument (GE Healthcare) at 25 °C. The proteins were diluted to 300 μg/ml in 10-mM sodium acetate buffer (pH 5 for ClpB DnaK or pH 4 for NBD) and immobilized on HC1500M sensor chips (Xantec) by standard amine coupling chemistry as described previously ([70]). A reference flow cell was created by ethyl(dimethylaminopropyl) carbodiimide/N-hydroxysuccinimide activation followed by quenching with 1 M ethanolamine (pH 9.0). Solvent correction curves were obtained at the beginning and end and after every 50 injection cycles by injecting varying DMSO concentrations (4.0, 4.4, 4.6, 4.8, 5.0, 5.2, 5.4, and 5.9% [v/v]). All experiments were performed using a flow rate of 30 μl/min.
Binding isotherms were obtained with the ligand diluted to different concentrations in the SPR running buffer HBSMTD (20-mM Hepes, pH 7.4, 140-mM NaCl, 20-mM MgCl2, 5% (v/v) DMSO, 0.005% (v/v) Tween-20). Replicate injections were performed for all samples, and a buffer-only injection was performed for every 12 injection cycles. To test the structural integrity of ClpB after immobilization on the sensor chips, we performed control titrations with ATPγS and adenosine. The dissociation constants determined from those experiments were ∼20 μM for ATPγS and ∼2 mM for adenosine. […] Moreover, the immobilized ClpB discriminated between a nucleotide analog and a nucleoside, which indicated an adequate structural integrity of ClpB on the sensor chips.
The resulting sensorgrams were analyzed using Biacore T200 Evaluation Software v3.0 according to the following procedure. Solvent correction curves were generated and applied to all data sets, and all sensorgrams were double-referenced by subtracting the most recent buffer blank injection. The signal immediately before injection stop of these corrected sensorgrams was treated as the binding response. GraphPad Prism was used for nonlinear least-squares fitting of the model assuming either noncooperative or cooperative binding of DBeQ to DnaK and ClpB, respectively.

monomeric ClpB = molecular target: monomeric ClpB; set-up: method as in PMID 10982797; conditions: read-out: Kd of monomeric ClpB toward ATP; cited from earlier work
p97 = tested on: p97; set-up: method as in PMID 25685910; conditions: cited from earlier work
E. coli ClpB = molecular target: T2, E. coli ClpB (Escherichia coli, UniProt P63284); assay type: biochemical; conditions: 100 μM compound, 37 °C; for inhibition of the basal ClpB ATPase: no casein; for inhibition of the ClpB ATPase in the presence of casein: with κ-casein
T2 construct: made in house
Protocol: To determine the ATPase activity, ClpB was diluted to 28 μg/ml (49-nM hexamer) in buffer C (50-mM Tris-HCl, pH 7.4, 20-mM MgCl2, 1-mM EDTA, 0.5-mM tris(2-carboxyethyl)phosphine [TCEP]). In some experiments, the ClpB solution was supplemented with 17.4 μg/ml (10 μM) κ-casein. The ClpB aliquots (18 μl) were mixed with 1 μl of the investigated compounds at different concentrations in 100% DMSO or with DMSO as a control. A sample without ClpB was used as a baseline control. After a 10-min preincubation at 37 or 45 °C, the ATP hydrolysis reaction was initiated by adding 1 μl of 100-mM ATP. The samples were incubated for 60 min (basal ClpB activity in the absence of κ-casein) or 15 min (in the presence of κ-casein) at 37 °C or 30 min at 45 °C in the absence of casein. For the E678Q ClpB variant, the incubation time in the presence of κ-casein was 60 min. After incubation, 15 μl of each sample was mixed with 200 μl of the ammonium molybdate/malachite green reagent ([67]) dispensed into a 96-well plate, followed by an addition of 30 μl of 34% sodium citrate ([68]). The plate was agitated inside a Synergy H1 reader (BioTek, Winooski, VT) for 15 min at room temperature, and the samples’ absorbance was measured at 630 nm. The readouts for ClpB-containing samples were corrected for absorbance of samples without ClpB, to account for nonenzymatic production of inorganic phosphate. A standard curve obtained with different inorganic phosphate concentrations was used to determine the amount of phosphate produced from ATP in the presence of ClpB.

T2 sequence (P63284 whole entry): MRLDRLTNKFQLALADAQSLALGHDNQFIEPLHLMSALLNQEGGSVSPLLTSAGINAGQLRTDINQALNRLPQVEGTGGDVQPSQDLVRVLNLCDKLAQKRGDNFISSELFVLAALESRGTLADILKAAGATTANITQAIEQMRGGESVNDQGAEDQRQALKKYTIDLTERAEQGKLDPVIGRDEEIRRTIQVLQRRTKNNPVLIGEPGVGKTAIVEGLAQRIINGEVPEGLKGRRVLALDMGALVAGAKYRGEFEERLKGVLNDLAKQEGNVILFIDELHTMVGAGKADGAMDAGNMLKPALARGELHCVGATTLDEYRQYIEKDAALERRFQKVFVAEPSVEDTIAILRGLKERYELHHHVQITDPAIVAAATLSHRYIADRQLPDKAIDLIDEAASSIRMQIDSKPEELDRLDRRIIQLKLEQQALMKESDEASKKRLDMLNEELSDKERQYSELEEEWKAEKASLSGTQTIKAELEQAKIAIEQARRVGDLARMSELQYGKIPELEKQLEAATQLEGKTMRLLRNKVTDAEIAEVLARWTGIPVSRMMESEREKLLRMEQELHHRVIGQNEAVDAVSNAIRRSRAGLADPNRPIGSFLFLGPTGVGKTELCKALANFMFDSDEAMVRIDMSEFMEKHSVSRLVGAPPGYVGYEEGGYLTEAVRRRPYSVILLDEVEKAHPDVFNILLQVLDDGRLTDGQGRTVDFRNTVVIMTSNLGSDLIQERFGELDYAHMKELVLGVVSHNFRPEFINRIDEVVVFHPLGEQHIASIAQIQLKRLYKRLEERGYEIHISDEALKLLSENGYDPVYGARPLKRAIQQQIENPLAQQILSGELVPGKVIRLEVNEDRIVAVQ
T1 sequence (P63284 whole entry): as above

Row | Structure (SMILES) | Kd (wt ClpB) [µM] | Kd (monomeric ClpB) [µM] | IC50 (p97) [µM] | inhibition of the basal ClpB ATPase (E. coli ClpB) | inhibition of the ClpB ATPase in the presence of casein (E. coli ClpB)
1 | Nc1ncnc2c1ncn2[C@@H]1O[C@H](CO[P@](=O)(O)O[P@](=O)(O)O[P@@](=O)(O)S)[C@@H](O)[C@H]1O [ATPγS] | ~20 |  |  |  | 
2 | Nc1ncnc2c1ncn2[C@@H]1O[C@H](COP(=O)(O)OP(=O)(O)OP(=O)(O)O)[C@@H](O)[C@H]1O [ATP] |  | > 1000 |  |  | 
3 | COc1cccc2c(NCc3ccccc3)nc(-n3c(N)nc4ccccc43)nc12 [ML240] |  |  | ~0.1 | None of the above compounds, except C3, showed a significant inhibition | loss of potency toward ClpB; also recorded: only C3 and DBeQ strongly inhibited
4 | Nc1ncnc2c1ncn2[C@@H]1O[C@H](CO)[C@@H](O)[C@H]1O [adenosine] | ~2000 |  |  |  | 
5 | Cc1cc(OCc2nnc(SC3CCCC3)n2-c2cccnc2)ccc1-c1ccc(S(C)(=O)=O)cc1 [NMS-873] |  |  | ~0.02 | None of the above compounds, except C3, showed a significant inhibition | only C3 and DBeQ strongly inhibited
